These results are taken from US20200308299A1, “ANTI-GPC-1 ANTIBODY” (National University Corporation Kochi University, priority 2017, published 2020).

The test system of the test is TE14 cells. As to the kind of experiment: Anticancer agent sensitivity of TE14 cells (CellTiter-Glo cell viability). Format: cell-based. As to conditions: cultured 6 days. Here is the method: 2000 TE14 cells were added to a 96-well plate at 90 μl. The cells were cultured overnight at 37° C. in a 5% CO2 incubator. The next day, 10 μl of an anticancer agent concentrated 10-fold relative to the final concentration was added to each well, so that the total amount was 100 μl. The cells were cultured for 6 days at 37° C. in a 5% CO2 incubator. The cell viability was measured by using a CellTiter-Glo Luminescent Cell Viability Assay reagent to detect the amount of ATP. RPMI1640+10% FBS+1% PS was used as the medium. MMAE (model number: 474645-27-7, ALB Technology) and MMAF (model number: 745017-94-1, ALB Technology) were used as the anticancer agent.

Non-standard residues stand in square brackets, D forms with d. Residues, ends and D or L forms follow the SMILES beside them. *: point of attachment. Dolaproine = CO[C@@H]([C@@H]1CCCN1)[C@@H](C)C(=O)O; Dil = CC[C@H](C)[C@H](NC)[C@@H](CC(=O)O)OC; X1 = C[C@@H](N*)[C@@H](O)c1ccccc1; NMeV = CN[C@H](C(=O)O)C(C)C

As to `CC[C@H](C)[C@@H]([C@@H](CC(=O)N1CCC[C@H]1[C@H](OC)[C@@H](C)C(=O)N[C@H](C)[C@@H](O)c1ccccc1)OC)N(C)C(=O)[C@@H](NC(=O)[C@@H](NC)C(C)C)C(C)C` [MMAE, monomethyl auristatin-E] (H-[NMeV]V[Dil][Dolaproine]-X1), the 50% inhibitory concentration (IC50) was 0.926 nM. On to `CC[C@H](C)[C@@H]([C@@H](CC(=O)N1CCC[C@H]1[C@H](OC)[C@@H](C)C(=O)N[C@@H](Cc1ccccc1)C(=O)O)OC)N(C)C(=O)[C@@H](NC(=O)[C@@H](NC)C(C)C)C(C)C` [MMAF, monomethyl auristatin-F] (H-[NMeV]V[Dil][Dolaproine]F-OH), for which the IC50 was 26.8 nM.
